Measurements taken from patent publication US8217001B2, “Modification of feeding behavior” (Imperial Innovations Limited, priority 2001, dated 2012).
Like-named read-outs stand apart in the source and are kept apart here.

Columns and labels:
[1] = system: GABAergic IPSCs onto POMC neurons; test: GABAergic inhibitory postsynaptic currents (IPSCs) recorded in POMC neurons of hypothalamic slices; type: cell-based, mouse
POMC neurons = test: Whole cell recordings of membrane potential, currents and action potentials in EGFP-labeled POMC neurons of hypothalamic (ARC) slices; type: cell-based, mouse
[2] = Food intake after injection into the arcuate nucleus of fasted rats; type: in vivo, rat; details: rats fasted 24 hours
Procedure: (§1) Arcuate and paraventricular nuclei cannulations and injections were performed as previously described (Glaum et al., Mol. Pharmacol. 50, 230-5, 1996; Lee et al., J. Physiol (Lond) 515, 439-52; 1999; Shiraishi et al., Nutrition 15, 576-9, 1999). Correct intranuclear cannula placement was confirmed histologically at the end of each study period (Glaum et al., Mol. Pharmacol. 50, 230-5, 1996; Lee et al., J. Physiol (Lond) 515, 439-52, 1999; Shiraishi et al., Nutrition 15, 576-9, 1999). All animal procedures were approved under the British Home Office Animals (Scientific Procedures) Act, 1986. All injection studies on fasting animals were performed in the early light-phase (0800-0900). All dark-phase feeding studies injections were performed just prior to lights off.

[3] = Food intake after injection into the paraventricular nucleus (PVN) of fasted rats; type: in vivo, rat
Procedure: as §1, with “Animals: Male Wistar rats (200-250 g), 7-8 weeks old (Charles River Laboratories, United Kingdom) were maintained under controlled temperature (21-23° C.) and light conditions (lights on 07:00-19:00) with ad libitum access to water and food (RM1 diet; SDS Ltd., Witham, United Kingdom) except where stated. Arcuate” for “Arcuate”

[4] = system: NPY and α-MSH release from hypothalamic explants; test: Neuropeptide release from hypothalamic explants (RIA); type: cell-based, rat; details: 50 nM
Procedure: Hypothalamic explants: Male Wistar rats were killed by decapitation and the whole brain immediately removed, mounted with the ventral surface uppermost and placed in a vibrating microtome (Biorad, Microfield Scientific Ltd., Devon, UK). A 1.7 mm slice was taken from the base of the brain to include the PVN and the ARC and immediately transferred to 1 ml of artificial CSF (aCSF) (Kim et al., J. Clin. Invest. 105, 1005-11, 2000) equilibrated with 95% O2 and 5% CO2 and maintained at 37° C. After an initial 2-hour equilibration period, with aCSF replaced every 60 minutes, the hypothalami were then incubated for 45 minutes in 600 μl aCSF (basal period) before being exposed to the Y2A […] in 600 μl aCSF. Finally, the viability of the tissue was verified by a 45 minute exposure to 56 mM KCL; isotonicity was maintained by substituting K^+ for Na^+.

NPY Y2 receptor = target: T1, NPY Y2 receptor (Homo sapiens, UniProt P49146); test: Receptor-binding studies on cell lines expressing NPY Y2 receptor
T1 construct: host or cells: unnamed cell line expressing the receptor
T1 sequence (P49146 1-381): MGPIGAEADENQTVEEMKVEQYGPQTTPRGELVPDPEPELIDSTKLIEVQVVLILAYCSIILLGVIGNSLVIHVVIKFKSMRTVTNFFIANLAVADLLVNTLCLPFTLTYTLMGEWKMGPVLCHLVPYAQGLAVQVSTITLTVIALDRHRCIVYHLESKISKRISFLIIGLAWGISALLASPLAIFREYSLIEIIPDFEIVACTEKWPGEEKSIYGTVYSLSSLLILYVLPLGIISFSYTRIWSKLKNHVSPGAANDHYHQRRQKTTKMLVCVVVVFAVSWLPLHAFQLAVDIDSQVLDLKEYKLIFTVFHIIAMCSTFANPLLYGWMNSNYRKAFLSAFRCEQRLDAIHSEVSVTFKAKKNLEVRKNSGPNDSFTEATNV

NPY Y1 receptor = NPY Y1 receptor (Homo sapiens, UniProt P25929); test: biochemical; type: binding
NPY Y5 receptor = target: T2, NPY Y5 receptor (Homo sapiens, UniProt Q15761); test: Receptor-binding studies on cell lines expressing NPY Y5 receptor
T2 construct: host or cells: unnamed cell line expressing the receptor
T2 sequence (Q15761 1-445): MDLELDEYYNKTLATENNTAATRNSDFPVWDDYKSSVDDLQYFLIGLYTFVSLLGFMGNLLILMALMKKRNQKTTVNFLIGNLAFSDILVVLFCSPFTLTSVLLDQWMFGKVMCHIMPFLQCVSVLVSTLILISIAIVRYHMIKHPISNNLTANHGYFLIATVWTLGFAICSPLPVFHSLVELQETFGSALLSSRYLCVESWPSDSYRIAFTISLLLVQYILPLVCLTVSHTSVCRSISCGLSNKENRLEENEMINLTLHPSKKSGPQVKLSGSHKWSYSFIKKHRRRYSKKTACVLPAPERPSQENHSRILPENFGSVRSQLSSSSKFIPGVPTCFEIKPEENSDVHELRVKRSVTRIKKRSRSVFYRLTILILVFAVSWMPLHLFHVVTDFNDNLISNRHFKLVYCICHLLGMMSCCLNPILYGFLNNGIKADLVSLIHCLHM

[5] = system: non-POMC neurons in the arcuate nucleus; test: Recordings from non-fluorescent (non-POMC) neurons in the arcuate nucleus; type: cell-based, mouse; details: 13 cells tested; hyperpolarized 5, depolarized 3

Chain of NPY Y1 receptor (P25929 whole entry): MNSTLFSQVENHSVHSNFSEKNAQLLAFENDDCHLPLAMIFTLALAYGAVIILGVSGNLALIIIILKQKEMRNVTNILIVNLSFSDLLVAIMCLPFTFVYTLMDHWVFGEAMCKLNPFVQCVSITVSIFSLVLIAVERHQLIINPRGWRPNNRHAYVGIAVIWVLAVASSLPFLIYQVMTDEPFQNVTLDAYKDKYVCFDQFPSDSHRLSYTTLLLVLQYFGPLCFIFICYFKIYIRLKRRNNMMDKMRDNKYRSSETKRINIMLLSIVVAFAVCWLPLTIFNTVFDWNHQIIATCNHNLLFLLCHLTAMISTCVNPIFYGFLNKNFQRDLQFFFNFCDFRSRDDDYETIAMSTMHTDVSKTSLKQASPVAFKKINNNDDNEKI

## NC1=N[C@H](O)[C@H]2[C@H]3O[C@]4(O)O[C@@H]([C@@H](O)[C@@]2(N1)[C@@H]4O)[C@]3(O)CO [TTX, tetrodotoxin]
[1]
  effect on large amplitude IPSCs: abolished large IPSCs

## Ac-LRHYLNLLTRQRY-NH2 (C-terminus assumed) [Y2A, N-acetyl (Leu^28, Leu^31) NPY (24-36)]
POMC neurons; whole cell, PYY3-36 n=22, Y2A n=9
  depolarization of POMC neurons: 8.7±1.8 mV
[1]
  reduction of frequency of IPSCs onto POMC neurons: 44.4±9.3%
[2]; 100 fmol-1 nmol
  food intake after intra-arcuate injection, dose dependence: inhibited food intake
[2]; intra-arcuate, 0.1 μmol, n=8
  chow ingested 2 hours post-injection: 6.2 ± 0.5 g
[3]; 100 fmol-1 nmol, rats fasted 24 hours
  food intake after PVN injection: no alteration of food intake
[3]; PVN, 0.1 nmol, n=8
  food intake 2 hour post-injection: 8.0 ± 0.6 g
[4]; 45 minutes (FIG. 8e)
  α-MSH release from hypothalamic explants: concomitant increase in α-MSH release
[4]; 45 minutes (FIG. 8d)
  NPY release from hypothalamic explants: significantly decreased NPY release

## Ac-LRHYLNLLTRQRY-NH2 [Y2A, N-acetyl (Leu^28, Leu^31) NPY (24-36)]
NPY Y2 receptor
  IC50: 1.3 ± 0.2 nM
NPY Y1 receptor
  IC50: > 5000 nM
NPY Y5 receptor
  IC50: > 5000 nM

## CTAP
POMC neurons
  effect on the current induced by Met-Enk in POMC cells: completely prevented the current induced by Met-Enk

## D-Trp^8-γMSH
POMC neurons; 7 nM
  frequency of action potentials: decreased the frequency of action potentials

## NPY
[1]
  IPSCs in the presence of tetrodotoxin (TTX): still inhibited IPSCs
  decrease of frequency of GABAergic IPSCs: 55%
[1]; 100 nM
  time to decrease of IPSC frequency: ≤ 3 min

## met-enkephalin
POMC neurons; 30 μM
  spontaneous action potential generation: prevented spontaneous action potential generation
  time to hyperpolarization (rapid): 35 to 40 s
POMC neurons; 6.5 mM K+ Krebs, n=3
  reversal-potential of the inwardly-rectifying opioid current: approximately −60 mV

## picrotoxin
[1]; 100 μM
  effect on IPSCs: blocked all IPSCs

B1: leptin: leptin applied to identified POMC cells in slice preparations (protein, UniProt P41160 22-167, looked up)
Leptin: VPIQKVQDDTKTLIKTIVTRINDISHTQSVSAKQRVTGLDFIPGLHPILSLSKMDQTLAVYQQVLTSLPSQNVLQIANDLENLRDLLHLLAFSKSCSLPQTSGLQKPESLDGVLEASLYSTEVVALSRLQGSLQDILQQLDVSPEC
POMC neurons; 100 nM
  reversal of the small inward current: approximately −20 mV
POMC neurons; 100 nM, n=45
  mean±SEM depolarization: 9.7±1.2 mV
POMC neurons; 0.1-100 nM
  time to depolarization: 2 to 10 min
POMC neurons; 0.1-100 nM, 72 of 77 cells
  depolarization of POMC cells: 3-30 mV
POMC neurons; read-out: EC50 of concentration dependent depolarization of POMC cells
  EC50: 5.9 nM
[1]
  IPSCs in the presence of tetrodotoxin (TTX): still inhibited IPSCs
[1]; 100 nM (leptin: 5 out of 15 cells; NPY: all 12 cells)
  decrease of frequency of GABAergic IPSCs: 25%
[5]
  effect on adjacent non-fluorescent ARC cells: no effect on 5 of 13 adjacent non-fluorescent cells tested
